Results taken from patent EP3748362A1, “IN VITRO METHOD FOR DETECTING RENAL DISEASE” (Fundacion Instituto De Investigacion Sanitaria Fundacion …, priority 2019, dated 2020).

Tests used:
TRAF3 = test: Renal TRAF3 (western blot), unilateral ureteral obstruction in mice; format: in vivo; conditions: paricalcitol 750 ng/kg/day i.p., studied after 5 days
Procedure: (§1) All animal procedures were performed according to the guidelines of animal research in the European Community and with prior approval by the Ethics Committee of the Health Research of the IIS-Fundacion Jiménez Díaz. For in vivo studies, mice received a daily intraperitoneal injection of the VDRA Paricalcitol starting 48 hours prior to induction of kidney damage.
At the time of sacrifice, animals were anesthetized with 5 mg/kg xylazine (Rompun, Bayer AG) and 35 mg/kg ketamine (Ketolar, Pfizer) and the kidneys perfused in situ with cold saline before removal. Then, kidney portions were fixed in formalin buffer for immunohistochemistry studies or immediately frozen in liquid nitrogen for gene and protein studies.
Unilateral ureteral obstruction (UUO) was established in male C57BL/6 mice, under isoflurane-induced anesthesia. […]
For western blot, cell (25 µg/lane) and kidney (100-150 µg/lane) protein extracts were separated on 6%-12% polyacrylamide-SDS gels under reducing conditions. […] Autoradiographs were scanned using the Gel Doc™ EZ imager and analyzed with the Image Lab 3.0 software (BioRad).

[1] = Renal function (serum BUN), folic acid-induced renal injury in mice; format: in vivo; conditions: folic acid 300 mg/kg model; paricalcitol 25 µg/kg/day i.p.
Procedure: as §1
Folic acid nephropathy is a classical model of kidney tubulointerstitial injury and inflammation that has been reported in humans. Mice received a single intraperitoneal injection of folic acid (Sigma) 300 mg/kg in 0.3 mol/l sodium bicarbonate or vehicle, and were sacrificed 48 hours later. Two groups were studied; untreated or paricalcitol treated (25 µg/kg/day, i.p., Abbot), n=7-8 per group starting 48 hours before FA injection. The dose of paricalcitol was chosen based on dose-finding preliminary experiments.

NF-κB2 = test: Non-canonical NF-κB2 activation in TWEAK-stimulated PBMCs from healthy donors; format: cell-based, Human; conditions: 12 µM paricalcitol 24 hours, TWEAK 100 ng/ml, p52 levels
[2] = test system: TWEAK-induced renal inflammation; test: TWEAK-induced renal inflammation in mice (immunohistochemistry, real time PCR, ELISA); format: in vivo, C57BL/6 mice; conditions: TWEAK-injected mice, paricalcitol 750 ng/kg/day or SN52 0.7 mg/mouse/day
Procedure: as §1
At the time of sacrifice, animals were anesthetized with 5 mg/kg xylazine (Rompun, Bayer AG) and 35 mg/kg ketamine (Ketolar, Pfizer) and the kidneys perfused in situ with cold saline before removal. […]
Paraffin-embedded kidney sections (3 µm) were stained using conventional methods. […] For each sample (processed by duplicate in a blinded manner), the average value was obtained from the analysis of 4 fields (20X objective) as density/mm2 or percentage stained area vs total analyzed area. Data are expressed as fold increase over control mice, as mean ± SEM of 8-10 animals per group. […]
ELISA was used to evaluate levels of the chemokines CCL2 and CCL5 (eBioscience). In renal samples, total protein content was determined by the BCA method, and equal amounts of protein were analyzed. Data are expressed as n-fold increase over the mean of control levels.
Total RNA was isolated from cells and mouse kidney samples with Trizol (Invitrogen). […] The mRNA copy numbers were calculated for each sample by the instrument software using Ct value. […]

Q: Which results are given for C[C@H](/C=C/[C@H](C)C(C)(C)O)[C@H]1CC[C@H]2/C(=C/C=C3C[C@@H](O)C[C@H](O)C3)CCC[C@]12C [paricalcitol]?
A: renal TRAF3 protein levels (TRAF3): restored renal TRAF3 protein levels to values of control mice; renal function assessed by serum BUN levels [1]: restored changes in renal function; TWEAK-induced NF-κB2 activation (NF-κB2): inhibited; proinflammatory factors, such as CCL2, CCL5 and IL-6 ([2]; kidney, real time PCR, ELISA): significantly decreased; infiltrating monocytes/macrophages (F4/80+ cells), T lymphocytes (CD3+ cells) ([2]; kidney immunohistochemistry): significantly decreased
